{"source": "patent US20180348208A1", "about": "“Systems And Methods For Determining The Risk Of Severe Allergic Reaction To Allergen, And The Immunological Protection Afforded By Vaccines” (FlowMetric Life Sciences, priority 2017, published 2018)", "key": {"T cells": {"tested_on": "T cells", "test": "T cell activation detection by flow cytometry in stimulated human whole blood", "format": "cell-based", "experimental": "Human whole blood can be obtained and diluted 1:5 in RPMI media and stimulated with 0, 20, 40, 60, 80, and 100 μg/mL (of blood) of phytohemagglutinin (PHA) for about 20 hours at 37° C. and 5% CO2. In parallel, blood samples can be treated with a buffer (no PHA) as a stimulation control. Following the stimulation period, blood samples can be stained with fluorescently-labeled antibodies to T cell markers, including CD4, CD25, CD69, and CD71. Fluorescently-labeled (FITC, APC, PE, PerCP-Cy5, and APC-Cy7) antibodies can be mixed with 100 μIL of PHA-stimulated blood samples or with unstimulated blood control samples in parallel, and each of the samples were can then be incubated, protected from light, for a minimum of 30 minutes. Following incubation with the labeled antibodies, the samples can be washed with BSA Stain Buffer. In parallel, samples can be separately incubated with isotype control antibodies. Following washing, red blood cells can be lysed with 1 mL of 1× Pharm Lyse™ by incubation with this reagent for 15 minutes. Samples can be centrifuged, and washed again with BSA Stain Buffer. All samples can be fixed and permeabilized with eBiosciences Fix and Perm solutions according to the manufacturer's instructions. FoxP3 can be added to the fixed/permeabilized samples, and the samples can be incubated for a minimum of 30 minutes. Samples can be washed with BSA Stain Buffer, and 1 μL of Violet Live/Dead is added to the samples and incubated, protected from light, for a minimum of 15 minutes. Samples and controls can be run through a FACSAria III flow cytometer. The flow cytometer can be calibrated, and compensation can be performed according to standard requirements and procedures. Cells can be suspended at a density of 1,000,000 cells per mL in a tube, and run through the flow cytometer for analysis. One hundred thousand events can be collected per analysis. T cells can be identified by their forward (FSC) and side (SSC) scatter profiles, and gated accordingly. T cells can further be analyzed according to the T cell marker profiles (Fox3, CD4, CD25, cD69, and CD71)."}, "[1]": {"tested_on": "leukocytes and CD3+ lymphocytes", "test": "Detection of leukocyte and lymphocyte activation markers involved in allergic response by flow cytometry", "format": "cell-based, Human", "experimental": "Human whole blood was obtained from a normal control individual and from an individual with a severe allergy to Amoxicillin. The blood was diluted 1:5 in RPMI media, then stimulated with either 50 μM Amoxicillin for 20 minutes to 1 hour at 37° C. and 5% CO2. In parallel, blood samples were treated with a buffer as a stimulation control, or with 50 μg/mL of the potent polymorphonuclear leukocyte (PMN) chemotactic factor fMLP (N-Formylmethionyl-leucyl-phenylalanine).\nFollowing the stimulation period, blood samples were stained with fluorescently-labeled antibodies to leukocyte activation markers CD294, CD203a or lymphocyte activation markers CD71 and CD69 with the use of CD3 to identify CD3+ lymphocytes. Each of the samples were then incubated, protected from light, for a minimum of 30 minutes. Following incubation with the labeled antibodies, the samples were washed with BSA Stain Buffer. In parallel, samples were separately incubated with isotype control antibodies.\nFollowing washing, red blood cells were lysed with 1 mL of 1× Pharm Lyse™ by incubation with this reagent for 15 minutes. Samples were centrifuged, and washed again with BSA Stain Buffer.\nSamples and controls were then run through a FACS CANTO flow cytometer. The flow cytometer was calibrated, and compensation was performed according to standard requirements and procedures. Cells were suspended at a density of 1,000,000 cells per mL in a tube, and run through the flow cytometer for analysis. One hundred thousand events were collected per analysis.\nLive cells were gating based on their low staining with FVS450. Lymphocytes and leukocytes were identified by their forward (FSC) and side (SSC) scatter profiles, and gated accordingly. CD+ lymphocytes were then further analyzed according to activation markers CD69 and CD71."}, "[2]": {"conditions": "human whole blood diluted 1:5 in RPMI, PHA stimulation about 20 hours at 37° C."}, "[3]": {"conditions": "increasing amounts of PHA, 0 to 100 micrograms over 20 microgram increments"}, "[4]": {"conditions": "fMLP-stimulated blood samples, 50 μg/mL"}, "[5]": {"conditions": "blood from allergic donor (highly sensitive to Amoxicillin), 50 μM, 20 minutes to 1 hour"}, "[6]": {"conditions": "blood from non-allergic donor, 50 μM, 20 minutes to 1 hour"}}, "data": [{"compound": "Phytohemagglutinin [PHA]", "values": [{"measurement": "stimulation of normal whole blood CD71, CD69, FoxP3 and CD25+ cells", "setting": "T cells; 20-100 μg/mL PHA", "result": "stimulated"}, {"measurement": "CD4 expression on the T cells", "setting": "T cells; [2]", "result": "substantial increase"}, {"measurement": "expression of CD25, CD69, CD71, and FoxP3 on the T cells", "setting": "T cells; [2]", "result": "significant increase"}, {"measurement": "level of CD69 expression on CD4+ cells", "setting": "T cells; increasing amounts of PHA, 0 to 100 micrograms", "result": "enhancement"}, {"measurement": "level of CD71 expression on CD4+ cells", "setting": "T cells; [3]", "result": "enhancement"}, {"measurement": "level of FoxP3 expression on CD4+ cells", "setting": "T cells; [3]", "result": "enhancement"}]}, {"compound": "CSCC[C@H](NC=O)C(=O)N[C@@H](CC(C)C)C(=O)N[C@@H](Cc1ccccc1)C(=O)O", "note": "[fMLP, N-Formylmethionyl-leucyl-phenylalanine]", "values": [{"measurement": "CD294 and CD203a expression on leukocytes", "setting": "[1]; [4]", "result": "substantial increase"}, {"measurement": "expression of CD71 and CD69 on lymphocytes", "setting": "[1]; [4]", "result": "significant increase"}]}, {"compound": "CC1(C)S[C@@H]2[C@H](NC(=O)[C@H](N)c3ccc(O)cc3)C(=O)N2[C@H]1C(=O)O", "note": "[Amoxicillin]", "values": [{"measurement": "expression of CD69 and CD71 on CD3+ lymphocytes", "setting": "[1]; [5]", "result": "increased expression"}, {"measurement": "expression of CD294 and CD203a on leukocytes", "setting": "[1]; [5]", "result": "increased expression"}, {"measurement": "CD71 or CD69 on lymphocytes", "setting": "[1]; [6]", "result": "did not show an increase"}, {"measurement": "CD294 and CD203a on leukocytes", "setting": "[1]; [6]", "result": "did not show an increase"}]}]}
